This is an account of results in US5563156A, “Thrombin inhibitors” (Merrell Pharmaceuticals Inc., priority 1991, dated 1996).

What all share (assay type): biochemical
In one assay the target is HUMAN LUNG TRYPTASE
Put plainly: In vitro inhibition of human lung tryptase, rate constants by progress curve analysis. To be noted: nonlinear regression (ENZFITTER). As to the method: Using standard in vitro methodology for determining inhibitory activity of tryptase (Journal of Biological Chemistry, Vol. 261, Jun. 5, pp. 7322-7379, 1986), the following results have been obtained:
^a Rate constants were determined by progress curve analysis using a
nonlinear regression program (ENZFITTER)

Assay [1] concerns human plasma. Put plainly: Anticoagulant effect in human plasma, activated partial thromboplastin time (aPTT). An excerpt: (§1) Anticoagulant data may be represented as follows:
In assay [2] the test system is human plasma. In words: Anticoagulant effect in human plasma, thrombin time (TT).
Description: as §1

Broadly, the Ki is the equilibrium dissociation constant of an inhibitor or competing ligand from its target. For orientation: koff means the first-order rate constant of dissociation. Read a low koff as a long-lived complex. By kon is commonly meant a measure of how fast the partners come together. High values mean faster complex formation, low ones slower complex formation.

On HUMAN LUNG TRYPTASE, `Cl.Cl.N=C(N)NCCCC(NC(=O)[C@@H]1CCCN1C(=O)[C@H]1Cc2ccccc2CN1)C(=O)C(F)(F)C(F)(F)F.O` (stereo partly drawn) [D-3-TIC--Pro--Arg--CF2 CF3, L-Prolinamide, N-[2-[3-[(aminoiminomethyl)amino]propyl]-3,3,4,4,4-pentafluoro-2-oxobutyl]-1-D-[(1,2,3,4-tetrahydro-3-isoquinolinyl)carbonyl]-, dihydrochloride, hydrate] gave a Ki of 75 nM, a koff of 0.00034 s⁻¹ and a kon of 4700 ± 200 M⁻¹ s⁻¹.

For the molecule `CC(=O)O.F.N=C(N)NCCCC(NC(=O)[C@@H]1CCCN1C(=O)[C@H](N)Cc1ccccc1)C(=O)C(F)(F)F.O` (stereo partly drawn) [D-Phe--Pro--Arg--CF3, L-Prolinamide, N-D-phenylalanyl-N-[1-[3-[(amino]iminomethyl)amino]propyl]-3,3,3-trifluoro-2-oxopropyl]-, hydrofluoride, acetate, hydrate], affinity on HUMAN LUNG TRYPTASE was put at a Ki of 500 nM.

On to “L-Prolinamide, N-methyl-D-phenylalanyl-N-[1-[3-[(aminoiminomethyl) amino]propyl]-3,3,3-trifluoro-2-oxopropyl]-, dihydrochloride, hydrate [D-CH3 Phe--Pro--Arg--CF3]”, for which the “ID2 a PTT (amount required for doubling the clotting time)” value in the assay with human plasma [1] came out at 218 µM. For the same molecule, the “ID2 TT (amount required for doubling the clotting time)” value with human plasma [2] was 108 µM. At HUMAN LUNG TRYPTASE, the Ki amounted to 80 nM, the koff was 1.5e-05 s⁻¹ and the kon was 200 ± 10 M⁻¹ s⁻¹.

Take `CC(=O)O.F.N=C(N)NCCCC(NC(=O)[C@@H]1CCCN1C(=O)[C@H](N)Cc1ccccc1)C(=O)C(F)(F)F.O` (stereo partly drawn) [D-Phe--Pro--Arg--CF3]: the “ID2 a PTT (amount required for doubling the clotting time)” value in the assay with human plasma [1] is 148 µM. Also, the “ID2 TT (amount required for doubling the clotting time)” value in the assay on human plasma [2] worked out at 43 µM. In the assay on HUMAN LUNG TRYPTASE, the koff was determined as 0.00015 s⁻¹ and the kon is 290 ± 20 M⁻¹ s⁻¹.
